US20230107216A1, “PANTETHEINE DERIVATIVES AND USES THEREOF” (Comet Therapeutics, Inc., priority 2018, published 2023)
Read-outs that look alike come from different tables or passages of the source.

Legend:
[1] = test system: Peripheral blood mononuclear cells co-cultured with B-cells (BT system); assay: cells; conditions: Homo sapiens, 72 h
[2] = test system: Bronchial epithelial cells (BE3C system); assay: BioMAP BE3C system (IL-1β, TNFα, IFNγ); format: cell-based, human; conditions: 10 uM, procedure of Example 831; for inhibition at 10 µM: Homo sapiens, Epithelial cell, 24 h, read-out: % decrease in MMP-1
[3] = test system: Peripheral blood mononuclear cells co-cultured with venular endothelial cells (HUVEC) (LPS system); assay: BioMAP LPS system; format: cell-based, human; conditions: procedure of Example 827; for inhibition at 1 µM / activation at 10 µM / inhibition at 10 µM: Homo sapiens, HUVEC, 24 h; for activation at 10 µM: read-out: % increase in sTNFα
[4] = test system: Peripheral blood mononuclear cells co-cultured with B-cells (BT system)
[5] = test system: Coronary artery smooth muscle cells (CASM3C system); assay: BioMAP CASM3C system (IL-1β, TNFα, IFNγ); format: cell-based, human; conditions: for inhibition at 10 µM: Homo sapiens, 24 h, read-out: % decrease in Thrombomodulin
HepG2 cells = assay: Glucose uptake (Glucose Uptake-Glo); format: cell-based; conditions: Homo sapiens, 10 uM, read-out: % increase in Glucose Uptake
[6] = test system: Propionic Acidemia (PA) primary fibroblasts GM00371; assay: Mitochondrial respiration, XFe96 Extracellular Flux Analyzer (OCR/ECAR), PA fibroblasts GM00371; format: cell-based; conditions: Homo sapiens, Fibroblast, read-out: Increase in Maximal Respiratory Capacity AUC; for activation at 50 µM: assay condition C (10 mM glucose, 10% FBS)
[7] = test system: Venular Endothelial cells (HUVEC) (4H system); assay: BioMAP 4H system (IL-4 and histamine); format: cell-based, human; conditions: procedure of Example 826; for inhibition at 1 µM: Homo sapiens, HUVEC, 24 h, read-out: % decrease in VEGFRII
[8] = test system: Dermal fibroblasts (HDF3CGF system); assay: BioMAP HDF3CGF system (IL-1β, TNFα, IFNγ, EGF, bFGF, PDGF-BB); format: cell-based, human
[9] = test system: Venular Endothelial cells (HUVEC) (3C system); assay: BioMAP 3C system (IL-1β, TNFα, IFNγ); format: cell-based, human; conditions: 10 uM; procedure of Example 825
Experimental: The BioMAP platform (BioMAP® Diversity PLUS® Panel from Eurofins) is an in vitro phenotypic profiling technology that screened the compounds of the present disclosure (hereafter indicated as test agents) in human primary cell-based systems modelling complex tissue and disease states. The BioMAP assays were performed using the Eurofin's BioMAP Technology Platform as (see references 1 to 13 in the example 824 section) to model different diseases on primary cell-based model systems. These systems consisted of either single primary cell types or co-culture cells. Adherent cell types were cultured or co-cultured in 96 or 384-well plates until confluence followed by the addition of compounds prepared in DMSO at a final concentration of ≤0.1%. In each cell-based system, primary cells from heathy donors (2-6 donors) were pooled and treated with compounds at 1 and 10 μM dose 1h prior to stimulation and remain in culture as indicated in Example 825, Example 826, Example 827, Example 828, Example 829, Example 830, Example 831, Example 832, Example 833, Example 834, Example 835, Example 836 and Example 837. For on the BioMAP® Diversity PLUS® Panel, please see the following references, which are incorporate herein.
Following the general procedure as described in Example 824, Venular Endothelial cells (HUVEC) (3C system) were treated with IL-1β, TNFα, IFNγ for 24h to model Th1 driven cardiovascular and chronic inflammation diseases in the presence or absence of the compounds. Biomarker read out were; Tissue Factor, ICAM-1, E-selectin, uPAR (CD87), IL-8, MIG, HLA-DR, proliferation and SRB (Sulfo-rhodamine i.e. staining for protein content).

[10] = test system: Bronchial epithelial cells co-cultured with dermal fibroblast (BF4T system); assay: BioMAP BF4T system (TNFα and IL-4); format: cell-based, human; conditions: procedure of Example 830
[11] = test system: primary culture of rat embryo mesencephalic cells (microglia, astrocytes and neurons) exposed to LPS; assay: Neuroprotective effect on damage induced by LPS on culture of mesencephalic neurons (NO, TNF-α, IL-1β, TH positive neurons); format: cell-based; conditions: 50 uM, after 5 days of LPS exposure; for inhibition at 50 µM: Rattus norvegicus, Neuron, 120 h, read-out: % reversion of TH positive neurons
Experimental: Drug preparation. […] The stock solutions will be prepared 1000× the concentration in 100% DMSO. The final concentration of the vehicle (DMSO) is set at 0.1%.
Test animals. Pregnant Wistar rats (Janvier; France) are used for the study. They are group-housed and maintained in a room with controlled temperature (21-22° C.) and a reversed light-dark cycle (12h/12h; lights on: 17:30-05:30; lights off: 05:30-17:30) with food and water available ad libitum.
The protocol is performed in 3 independent cultures. For each culture, each condition is performed in sextuplicate.
Female rat of 15 days gestation is killed by cervical dislocation. Fetuses are removed from the uterus and their brains are harvested and placed in ice-cold medium (Leibovitz's L15 medium, Gibco). Only ventral mesencephalic flexure is used for the cell preparations. The midbrain is dissociated by trypsinization. The reaction is stopped, and the suspension is triturated and centrifuged. The pellet of dissociated cells is resuspended in culture medium consisted of DMEM-F12 (Gibco), containing 10% FBS (ATCC), 10% Horse serum (Gibco) and 2 mM L-glutamine (Gibco). Viable cells are counted and seeded on 96-well plates, precoated with poly-L-lysine. Cells are maintained in a humidified incubator at 37° C. in 5% CO2-95% air atmosphere. Half of the medium is changed on day 2 and day 5.
Treatment. On day 7, culture media are removed and replaced by new medium consisting of DMEM-F12 (Gibco) supplemented with 2% FBS (ATCC), 2% Horse serum (Gibco) and 2 mM L-glutamine (Gibco) and containing vehicle or test substances. After 1-hour exposure, LPS at 10 ng/ml is added and exposure further continued for 24 hours or 5 days period.
Inflammatory response measurement and neuronal death evaluation. NO production is measured in the media 24h and 5 days after LPS exposure using the Griess reagent kit (Molecular Probes). The Griess reagent Assay is a colorimetric reaction assay which measures the conversion of a sulfanilic salt into an azo dye product by nitrite. Visible wavelength absorbance data is collected using a 96-well plate reader at 570 nm (Multiskan EX, Thermo Fisher, France). IL-1β and TNF-α release are measured in the media 24h after LPS exposure using the ELISA development kit (PeproTech). The ELISA plate, previously coated with anti-IL-1β or anti-TNF-αantibody at 1 μg/ml, is incubated 1h with PBS containing 1% of BSA (bovine serum albumin). After washing four times with PBS containing 0.05% of Tween-20, the plate is successively incubated 2h with supernatant, 2h with biotinylated antibody at 0.5 μg/ml in PBS containing 0.1% of BSA and 0.05% of Tween-20, 45 min with Avidin-HRP conjugated at 1/2000 and 30 min with color ABTS substrate (Sigma). Visible wavelength absorbance data is collected using a 96-well plate reader at 405 nm with wavelength correction set at 650 nm (Multiskan EX, Thermo Fisher, France).
Immunodetection of tyrosine hydroxylase positive neurons. On day 12 (5 days after LPS exposure), cultures are fixed 30 min at 4° C. with paraformaldehyde in PBS (4%, Sigma). Then, cells are successively permeabilized with 0.1% Triton X100 for 30 min, saturated with PBS containing 3% of BSA (bovine serum albumin) and are incubated 2h with anti-tyrosine hydroxylase antibody (Sigma, 1:10000; clone TH-2) at 1/10 000 in PBS containing 0.5% of BSA. Cells are washed three times with PBS containing 0.5% of BSA, and they are incubated 1h with goat anti mouse antibody coupled with AF488 (Invitrogen A11001) diluted at 1/1000 in PBS containing 0.5% of BSA. Finally, nuclei are stained with DAPI at 1/1000 in PBS containing 0.5% of BSA. After rinsing with PBS, the plate is visualized and examined with Cell Insight HCS (Thermo Scientific) to determine the number of tyrosine hydroxylase positive cells per well.
Statistical Analysis. The drug-induced effect on NO and cytokines is calculated by setting the response of the LPS-stimulated control as 100%. […]

[12] = 10 uM, procedure of Example 829
[13] = 10 uM, procedure of Example 833

CC(=O)OCCCC(=O)SCCNC(=O)CCNC(=O)[C@H](O)C(C)(C)CO [Compound 1305, 4-[(2-[3-[(2R)-2,4-dihydroxy-3,3-dimethylbutanamido]propanamido]ethyl)sulfanyl]-4-oxobutyl acetate]
inhibition at 10 µM ([1]; read-out: % decrease in sIL-17): ≥ 20%
inhibition at 10 µM [2]: ≥ 10%
inhibition at 1 µM ([3]; 1 uM, read-out: % decrease in IL-8): ≥ 10%
inhibition at 1 µM ([3]; 1 uM, read-out: % decrease in TissueFactor): ≥ 10%
activation at 10 µM [3]: ≥ 20%
% increase in B-cell Proliferation [4, 12]: ≥10%
% decrease in M-CSF ([5]; 1 uM, procedure of Example 832): ≥10%
% decrease in Proliferation ([5]; 1 uM, procedure of Example 832): ≥10%
% decrease in VCAM-1 ([5]; 1 uM, procedure of Example 832): ≥10%
% decrease in CXCL9 ([5]; 10 uM): ≥10%
% decrease in Tissue Factor ([5]; 10 uM): ≥10%
inhibition at 10 µM ([5]; 10 uM): ≥ 20%
activation at 10 µM (HepG2 cells): ≥ 10%
activation at 50 µM [6]: ≥ 10%
activation at 10 µM ([6]; assay condition D (1 mM glucose, 10% FBS), 10 μM): ≥ 10%
% decrease in MCP-1 ([7]; 10 uM): ≥10%
inhibition at 1 µM [7]: ≥ 10%
% decrease in CXCL11/I-TAC [8, 13]: ≥10%
inhibition at 1 µM ([8]; Homo sapiens, Fibroblast, 24 h, 1 uM, read-out: % decrease in Collagen III): ≥ 10%
% increase in Proliferation (HUVEC) [9]: ≥20%

COC(=O)CCC(=O)SCCNC(=O)CCNC(=O)[C@H](O)C(C)(C)COC(=O)OCC[N+](C)(C)C [Compound 117, [2-([[(3R)-3-hydroxy-3-[[2-([2-[(4-methoxy-4-oxobutanoyl)sulfanyl]ethyl]carbamoyl)ethyl]carbamoyl]-2,2-dimethylpropoxy]carbonyl]oxy)ethyl]trimethylazanium]
% decrease in tPA ([10]; 10 uM): ≥10%
inhibition at 1 µM ([1]; read-out: % decrease in sIL-17): ≥ 20%
activation at 10 µM ([1]; read-out: % increase in sIL-6): ≥ 10%
% decrease in tPA [2]: ≥10%
inhibition at 10 µM [2]: ≥ 10%
% increase in IL-1α ([3]; 1 uM): ≥10%
% increase in Tissue Factor ([3]; 1 uM): ≥10%
inhibition at 1 µM ([3]; 1 uM, read-out: % decrease in sPGE2): ≥ 10%
activation at 10 µM [3]: ≥ 20%
% decrease in CXCL9 ([5]; 10 uM): ≥10%
inhibition at 10 µM ([5]; 10 uM): ≥ 10%
activation at 10 µM (HepG2 cells): ≥ 30%
activation at 50 µM [6]: ≥ 10%
inhibition at 1 µM [7]: ≥ 10%
activation at 10 µM ([8]; Homo sapiens, Fibroblast, 72 h, 10 uM, read-out: % increase in 72 Hour Proliferation): ≥ 10%
% increase in Proliferation (HUVEC) [9]: ≥10%

COC(=O)/C=C/C(=O)SCCNC(=O)CCNC(=O)[C@H](O)C(C)(C)COC(C)=O [Compound 145, methyl (2E)-4-[(2-[3-[(2R)-4-(acetyloxy)-2-hydroxy-3,3-dimethylbutanamido]propanamido]ethyl)sulfanyl]-4-oxobut-2-enoate]
% increase in tPA ([10]; 10 uM): ≥10%
activation at 1 µM ([10]; Homo sapiens, 24 h, 1 uM, read-out: % increase in VCAM-1): ≥ 10%
inhibition at 1 µM ([1]; read-out: % decrease in sIL-17): ≥ 10%
inhibition at 10 µM ([3]; read-out: % decrease in IL-1α): ≥ 10%
inhibition at 10 µM ([3]; read-out: % decrease in IL-8): ≥ 10%
activation at 10 µM [3]: ≥ 10%
% decrease in B-cell proliferation ([4]; 1 uM, procedure of Example 829): ≥20%
% decrease in sTNFα [4, 12]: ≥10%
% decrease in PBMC cytotoxicity ([4]; human, 72 h, 10 µM): ≥20%
% decrease in NO release relative to LPS alone [11]: ≥35%
inhibition at 50 µM ([11]; list at threshold 15%): ≥ 15%
inhibition at 50 µM ([11]; list at threshold 50%): ≥ 50%
% decrease in LDLR ([5]; 1 uM, procedure of Example 832): ≥10%
% decrease in HLA-DR ([5]; 10 uM): ≥10%
activation at 10 µM (HepG2 cells): ≥ 30%
% decrease in Collagen I [8, 13]: ≥10%
inhibition at 10 µM ([8]; Homo sapiens, Fibroblast, 24 h, 10 uM, read-out: % decrease in Collagen III): ≥ 10%
% decrease in IL-8 [9]: ≥10%
